Reference: patent publication US9988462B2, “Material and methods for treating or preventing HER-3 associated diseases” (Daiichi Sankyo Europe GmbH, priority 2005, dated 2018)
Each block holds one molecule with its values, some of them ahead of it.

How the values were obtained:
[1] = test system: HER3 phosphorylation in A549 cells; assay: Reactivation study: pHER3 ELISA in A549 cells; assay type: cell-based, human
Method: Experiments were performed in triplicate wells and repeated at least 2 times. Results are expressed as mean±SD.
A549 cells were plated in Ham's F-12 medium (Gibco), all media supplemented with 10% FBS (Hyclone, Logan, Utah) and 1× L-glutamine (Gibco). Cells were serum-starved overnight. […] Cells were washed with cold PBS after their respective treatment time points and lysed using RIPA buffer (20 mM Tris-HCl pH 7.5, 1% Igepal, 1% sodium deoxycholate, 150 mM NaCl, 0.1% SDS, 1% Triton X-100) containing 200 μM phenylmethanesulfonylfluoride (PMSF) (Fluka Biochemica), 200 μM Halt protease inhibitor cocktail kit (Pierce Biotechnology), and 200 μM sodium orthovanadate (Sigma-Aldrich, St. Louis, Mo.). The lysates were passed through QIA shredder columns (Qiagen) and the flow-through quantitated using a spectrophotometer (Beckman Coulter, Fullerton, Calif.). Proteins, 50 μg per well, were analyzed in duplicate for pHER3 using ELISA Duoset (R&D systems) according to manufacturer's protocol.

[2] = test system: HCC-1569; assay: HCC-1569 breast cancer xenograft, U1-59 and lapatinib; assay type: in vivo, mouse; conditions: HCC-1569 xenograft
[3] = target: T1, rat HER-3 (Rattus norvegicus, UniProt Q62799); assay: ELISA cross-reactivity with rat HER-3; assay type: binding
T1 construct: The cDNAs expressing the ECD of human and rat HER-3 were cloned into mammalian expression vectors as V5-His fusion proteins; V5-His; made in house; host or cells: mammalian expression vector; HEK 293T is named only for the chimeras
T1 sequence (Q62799 20-643 limits assumed): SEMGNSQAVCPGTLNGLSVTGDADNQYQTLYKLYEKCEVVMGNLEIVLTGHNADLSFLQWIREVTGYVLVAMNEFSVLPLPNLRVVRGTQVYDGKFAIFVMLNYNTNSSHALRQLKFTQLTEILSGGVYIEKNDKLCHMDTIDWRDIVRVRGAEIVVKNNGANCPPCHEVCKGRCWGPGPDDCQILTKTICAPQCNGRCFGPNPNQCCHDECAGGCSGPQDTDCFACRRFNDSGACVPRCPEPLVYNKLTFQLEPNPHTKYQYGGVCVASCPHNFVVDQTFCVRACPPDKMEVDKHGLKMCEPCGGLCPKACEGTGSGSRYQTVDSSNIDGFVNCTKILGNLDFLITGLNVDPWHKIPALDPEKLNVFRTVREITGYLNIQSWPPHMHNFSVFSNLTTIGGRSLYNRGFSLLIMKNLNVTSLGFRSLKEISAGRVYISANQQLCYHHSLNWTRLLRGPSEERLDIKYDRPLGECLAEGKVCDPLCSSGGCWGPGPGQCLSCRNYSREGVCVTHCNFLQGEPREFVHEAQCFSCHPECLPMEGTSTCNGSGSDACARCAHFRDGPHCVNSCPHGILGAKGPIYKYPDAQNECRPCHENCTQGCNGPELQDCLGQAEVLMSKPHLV
From the text: The extra-cellular domain (ECD) of Human HER-3 cDNA was amplified from RAT1-HER-3 cells. The rat HER-3 cDNAs was amplified by RT-PCR from rat liver RNA and confirmed by sequencing. The cDNAs expressing the ECD of human and rat HER-3 were cloned into mammalian expression vectors as V5-His fusion proteins. Domains from the human HER-3 ECD were swapped into the scaffold provided by the rat HER-3 ECD by using the Mfe1, BstX1 and DraIII internal restriction sites. By this means, various chimeric rat/human HER-3 ECD HIS fusion proteins (amino acids 1-160, 161-358, 359-575, 1-358, 359-604) were constructed and expressed via transient transfection of HEK 293T cells. Expression of the constructs was confirmed using a rat polyclonal antibody against human HER-3. The human monoclonal antibodies were tested in ELISA for binding to the secreted chimeric ECDs.

[4] = target: T2, reduced, denatured HER-3-His tagged purified ECD protein (Homo sapiens, UniProt P21860); assay: Dot blot analysis of reduced, denatured HER-3 ECD; assay type: binding
T2 construct: The extracellular domain of HER-3 (ECD) cDNA was cloned by polymerase chain reaction (PCR); His (C); made in house; host or cells: HEK293

[5] = target: T3, L1-S1 extra-cellular domains of HER-3 (Homo sapiens, UniProt P21860); assay: ELISA binding to truncated L1-S1 HER-3 protein
T3 construct: L1 domain (aa 19-184), in the S1 (aa 185-327); V5-His (C); made in house; host or cells: HEK 293T (supernatant)

[6] = test system: BxPC3; assay: BxPC3 pancreatic tumor xenograft in SCID mice (established tumors); assay type: in vivo, mouse; conditions: BxPC3, CB17 SCID mice; for tumor growth: 50 mg/kg then 25 mg/kg once weekly i.p.
Method: As controls sets of mice treated with either the vehicle control, PBS, or the established therapeutic antibody, Erbitux, were included. 5×10^6 BxPC3 cells were inoculated subcutaneously without Matrigel into CB17 SCiD mice. […] Thereafter the mice received once weekly 25 mg/kg injections for the duration of the study.

[7] = test system: BxPC3; assay: BxPC3 xenograft in SCID mice, combination with Erbitux; assay type: in vivo, mouse; conditions: BxPC3 with Matrigel, CB17 SCID mice, weekly i.p. for six weeks
Method: 5×10^6 BxPC3 cells were inoculated subcutaneously with Matrigel into CB17 SCID mice. After tumor volumes had reached 200 mm^3, mice were randomized into individual treatment groups. […] All antibodies were dosed at a single loading dose of 50 mg/kg/week, followed by weekly injections of 25 mg/kg for six weeks. Control arms received bi-weekly administrations of Gemcitabine (120 mg/kg), weekly pooled human IgG or weekly vehicle (PBS) injections. The regimens are detailed in TABLE 9 below.

[8] = test system: HER-3 phosphorylation (pHER-3); assay: Pharmacodynamic pHER-3 immunoblot of BxPC3 tumor xenografts; assay type: in vivo, mouse; conditions: 500 μg on day 1 and day 4, sacrificed day 5
Method: The inhibition of HER-3 in the human pancreatic tumors could also be shown in a pharmacodynamic experiment. The BxPC3 tumor xenografts were grown as described above. […] The mice were treated on day 1 and day 4 and then sacrificed on day 5 to measure the antibody-dependent inhibition of HER-3 phosphorylation (pHER-3).
The tumors were homogenized in a standard RIPA buffer with protease inhibitors. 50 μg clear lysate was separated on a 4-20% Tris-glycine gel, transferred onto a nitrocellulose membrane and blocked in 3% bovine serum albumin (BSA). Immunoblotting was performed using an anti-pHER-3 antibody (antibody 21D3, Cell Signaling technology). An anti-actin antibody (AB a-2066, Sigma) was used as a control.
Expression was detected by enhanced chemiluminescence (Amersham Biosciences, Piscataway, N.J.). The images were captured with the Versadoc 5000 Imaging System (BioRad, Hercules, Calif.). […] See, FIG. 20 of US Publication No. 20080124345.

[9] = test system: Calu-3 NSCLC xenografts; assay: Calu-3 NSCLC xenograft, U1-59 with panitumumab or erlotinib; assay type: in vivo, mouse; conditions: Calu-3, twice a week; 100 μg U1-59, 100 μg panitumumab, 25 μg erlotinib
Method: (§1) To determine in vivo efficacy, mice bearing ˜200 mm^3 Calu-3 NSCLC xenografts were treated twice a week with anti-HER family inhibitors or control. Other experiments were done with A549 cells.

[10] = test system: SkBr-3 breast cancer cells; assay: Anchorage-independent growth of SkBr-3 cells; assay type: cell-based, human
Method: (§2) IgG was used as a negative control for all studies. Tumor cell colonies formed in the absence or presence of HRG for 6 to 10 days and were stained with MTT for 4 to 6 hours and quantified.

[11] = test system: MDA-MB-435 cells; assay: Anchorage-independent growth of MDA-MB-435 cells; assay type: cell-based, human; conditions: basal MDA-MB-435
Method: as §2

[12] = test system: MDA-MB-175VII breast cancer cells; assay: Proliferation of MDA-MB-175VII cells (ALOMAR BLUE); assay type: cell-based, human; conditions: four days
Method: After four days, the growth of treated cells was measured with ALOMAR BLUE™.

[13] = test system: A549 cells; assay: Anchorage-independent growth of A549 cells; assay type: cell-based, human; conditions: A549, 10 μg/mL, 10 days
From the text: (§3) Tumor cell colonies formed in the absence of exogenous ligand for 10 days and were stained with MTT and quantified using a Scanalyzer HTS camera imaging system.

[14] = test system: A549 NSCLC xenograft; assay: A549 NSCLC xenograft model; assay type: in vivo, mouse; conditions: vs IgG control or other HER mAbs
Method: as §1, §3

[15] = test system: BxPC3 pancreatic xenografts; assay: BxPC3 xenograft dose/schedule efficacy (PK/PD/Efficacy model); assay type: in vivo, mouse; conditions: vs IgG control
Method: (§4) Inhibition of pHER in the BxPC3 xenograft tumors was analyzed by western blotting. A PK/PD/Efficacy model (based on Simeoni et al. (2004) Cancer Res. 64:1094-1101) was used to prospectively select dose and schedule for further testing. To confirm the PK/PD/Efficacy model, BxPC3 pancreatic tumor-bearing mice were treated with 400 μg/mouse biweekly and 200 μg/mouse biweekly, weekly and twice a week. […] The relationship between drug concentration, inhibition of pHER-3 in animals, and interspecies PK scaling was used to select the minimally effective dose for the first in human study.

[16] = test system: pHER-3; assay: pHER-3 in BxPC3 xenograft tumors (quantitative Western blot); assay type: in vivo, mouse; conditions: for inhibition of pHER-3: quantitative Western blot
Method: as §4

[17] = Serum concentration of U1-59 at necropsy; assay type: in vivo, mouse
Method: as §4

[18] = Interspecies scaling of U1-59 PK to human; conditions: estimated by interspecies scaling (mice, rat, monkeys)
Method: as §4

[19] = test system: HER-3 phosphorylation in MCF-7 cells; assay: HRG-β induced HER-3 phosphorylation in MCF-7 cells (ELISA); assay type: cell-based, human; conditions: 10 nM HRG-β for 10 min, read-out: IC50, inhibition of phosphorylation of HER-3
Method: Lysates were transferred to 1B4 (mouse anti-HER-3 mAb) ELISA plates and phosphorylation of HER-3 was analyzed with antibody 4G10. […] See, FIG. 7b of US Publication No. 20080124345.

[20] = A549, 24 hours, 50 μg/ml U1-59, 5 μM gefitinib

Molecule: COc1cc2ncnc(Nc3ccc(F)c(Cl)c3)c2cc1OCCCN1CCOCC1 [gefitinib, 4-(3-chloro-4-fluorophenylamino)-7-methoxy-6-[3-(4-morpholinyl)propoxy]quinazoline]
HER3 phosphorylation ([1]; A549, 1 hour, 5 μM gefitinib): partial inhibition of HER phosphorylation | HER3 phosphorylation [1, 20]: reversed to control levels after 24 hours

Molecule: CS(=O)(=O)CCNCc1ccc(-c2ccc3ncnc(Nc4ccc(OCc5cccc(F)c5)c(Cl)c4)c3c2)o1 [lapatinib, N-[3-chloro-4-[(3-fluorobenzyl)oxy]phenyl]-6-[5-[[[2-(methylsulfonyl)ethyl]amino]methyl]furan-2-yl]quinazolin-4-amine bis(4-methylbenzene-sulfonate)monohydrate, reference compound]
tumor growth [2]: some, but not significant tumor growth inhibition

Molecule: U1-59: human anti-HER-3 antibody, SEQ ID NO: 70/72
Rat XR (cross-reactive) [3]: cross-reacted with rat HER-3 and Yes | binding in dot blot analysis [4]: absence of binding | binding to the L1-S1 protein [5]: bound to the L1-S1 protein | delay of tumor growth compared with Erbitux [6]: more effective than the EGF-R-targeting antibody Erbitux at delaying tumor growth | tumor growth [6]: reduced the growth of the human pancreatic tumors in a cytostatic fashion | tumor growth [7]: delayed the growth of the human pancreatic tumors to the same degree as Gemcitabine | phosphorylation of HER-3 in tumors [8]: no longer detectable | tumor growth [9]: greatly reduced tumor growth as compared to control | inhibition of colony growth [10]: 50% | colony growth / colony formation [11]: did not inhibit colony growth | reduction of HRG-stimulated proliferation [12]: up to 40% | inhibition of colony growth [13]: 50% | tumor growth [14]: tumor stasis | tumor growth [2]: did not inhibit HCC-1569 tumor growth | inhibition of tumor growth ([15]; 200 μg/mouse biweekly): 33% | inhibition of tumor growth ([15]; 200 μg/mouse twice a week): 70% | inhibition of tumor growth ([15]; 200 μg/mouse weekly): 74% | inhibition of tumor growth ([15]; 400 μg/mouse biweekly): 50% | inhibition of pHER-3 ([16]; 200 μg/mouse biweekly): 58% | inhibition of pHER-3 ([16]; 200 μg/mouse twice a week): 20% | inhibition of pHER-3 ([16]; 200 μg/mouse weekly): 23% | inhibition of pHER-3 ([16]; 400 μg/mouse biweekly): 30% | trough concentration needed to achieve 90% maximal pHER-3 inhibition (IC90) ([16]; BxPC3 xenograft mice, estimated): ~3 μg/ml | Serum concentration at necropsy, mean (SD) ([17]; 200 μg/mouse biweekly): 0.45 (0.21) μg/mL | Serum concentration at necropsy, mean (SD) ([17]; 200 μg/mouse twice a week): 34.9 (9.1) μg/mL | Serum concentration at necropsy, mean (SD) ([17]; 200 μg/mouse weekly): 3.08 (0.82) μg/mL | Serum concentration at necropsy, mean (SD) ([17]; 400 μg/mouse biweekly): 2.07 (0.97) μg/mL | clearance (CL) in man [18]: 11 mL/day/kg | initial volume of distribution (Vd) in man [18]: 0.028 L/kg | HER3 phosphorylation [1, 20]: greater inhibition of HER phosphorylation that was sustained after 24 hours

Molecule: panitumumab: fully human monoclonal antibody specific to EGF-R [reference compound]
tumor growth [9]: greatly reduced tumor growth as compared to control

Rat XR (cross-reactive) [3]: No | binding in dot blot analysis [4]: absence of binding | IC50 [19]: 140 pM
B1: U1-53: anti-HER-3 antibody, SEQ ID NO: 54/56 (antibody, V domains shown)
VH: EVQLVESGGGLVQPGGSLRLSCAASGFTFSIYSMNWVRQAPGKGLEWVSYISSSSSTIYYADSVKGRFTISRDNAKNSLYLQMNSLRDEDTAVYYCARDRGDFDAFDIWGQGTMVTVSS
VL: DIQMTQSPSSLSASVGDRVTITCQASQDITNYLNWYQQKPGKAPKLLIYDASNLETGVPSRFSGSGSGTDFTFTISSLQPEDIATYNCQQCENFPITFGQGTRLEIK
delay of tumor growth compared with Erbitux [6]: more effective than the EGF-R-targeting antibody Erbitux at delaying tumor growth | tumor growth [6]: reduced the growth of the human pancreatic tumors in a cytostatic fashion | tumor growth [7]: delayed the growth of the human pancreatic tumors to the same degree as Gemcitabine
